From patent US12157730B2, “Heteroaryl derivative, method for producing same, and pharmaceutical composition comprising same as effective component” (VORONOI INC., priority 2019, dated 2024)

Target: T1, Ba/F3 cell EGFR Exon20 ins NPH (Homo sapiens, UniProt P00533, INS773NPH)
T1 construct: expressed in transfected cells; host or cells: Ba/F3
Assay: Ba/F3 cell proliferation suppression, EGFR Exon20 ins NPH
Format: cell-based
Conditions: GI50 class; Ba/F3 cell line with NPH inserted at Exon20 of EGFR; 72 hours
Procedure, shortened: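 Growth suppression determined as GI50 following 72 h exposure across 12 concentrations up to 50 um, with viability by luminescent ATP assay (CellTiter-Glo).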

SMILES | Ba/F3 (NPH) Activity
C=CC(=O)Nc1cc(Nc2cc(N3OCC[C@@H]3c3cc(F)cc(F)c3)ncn2)c(OC)cc1N1CCC(N2C[C@H]3CC[C@@H](C2)O3)CC1 [compound 759, N-(2-(4-((1R,5S)-8-oxa-3-azabicyclo [3.2.1]octan-3-yl)piperidine-1-yl)-5-((6-((R)-3-(3,5-difluorophenyl)isoxazolidine-2-yl)pyrimidine-4-yl)amino)-4-methoxyphenyl) acrylamide] | B (50 nM ≤ GI50 < 500 nM)
C=CC(=O)Nc1cc(Nc2cc(N3OCC[C@@H]3c3cccc(F)c3F)ncn2)c(OC)cc1N1CCN(CC)CC1 [compound 297, N-(5-((6-((R)-3-(2,3-difluorophenyl)isoxazolidine-2-yl)pyrimidine-4-yl)amino)-2-(4-ethylpiperazine-1-yl)-4-methoxyphenyl) acrylamide] | A (GI50 < 50 nM)
C=CC(=O)Nc1cc(Nc2cc(N3OCC[C@@H]3c3cccc(F)c3)ncn2)c(OC)cc1N1CCC(N2CCN(CC)CC2)CC1 [Example 248, N-(2-(4-(4-ethylpiperazine-1-yl)piperidine-1-yl)-5-((6-((R)-3-(3-fluorophenyl)isoxazolidine-2-yl)pyrimidine-4-yl)amino)-4-methoxyphenyl) acrylamide] | A (GI50 < 50 nM)
C=CC(=O)Nc1cc(Nc2cc(N3OCC[C@@H]3c3cccc(Cl)c3)ncn2)c(OC)cc1N1CCN(C)CC1 [compound 360, N-(5-((6-((R)-3-(3-chlorophenyl)isoxazolidine-2-yl)pyrimidine-4-yl)amino)-4-methoxy-2-(4-methylpiperazine-1-yl)phenyl)acrylamide] | A (GI50 < 50 nM)
C=CC(=O)Nc1cc(Nc2cc(N3OCC[C@@H]3c3ccc(F)cc3F)ncn2)c(OC)cc1N1CCC(N2CCN(CCN(C)C)CC2)CC1 [compound 431, N-(5-((6-((R)-3-(2,4-difluorophenyl)isoxazolidine-2-yl)pyrimidine-4-yl)amino)-2-(4-(4-(2-(dimethylamino)ethyl)piperazine-1-yl)piperidine-1-yl)-4-methoxyphenyl) acrylamide] | A (GI50 < 50 nM)
C=CC(=O)Nc1cc(Nc2cc(N3OCC[C@@H]3c3cccc(Cl)c3C)ncn2)c(OC)cc1N1CCC(N2C[C@@H]3C[C@H]2CO3)CC1 [compound 531, N-(2-(4-((1S,4S)-2-oxa-5-azabicyclo[2.2.1]heptane-5-yl)piperidine-1-yl)-5-((6-((R)-3-(3-chloro-2-methylphenyl)isoxazolidine-2-yl)pyrimidine-4-yl)amino)-4-methoxyphenyl) acrylamide] | A (GI50 < 50 nM)
C=CC(=O)Nc1cc(Nc2cc(N3OCC[C@@H]3Cc3cccc(Cl)c3F)ncn2)c(OC)cc1N1CCC(N2CCN(C3CC3)[C@@H](C)C2)CC1 [compound 1018, N-(5-((6-((S)-3-(3-chloro-2-fluorobenzyl)isoxazolidine-2-yl)pyrimidine-4-yl)amino)-2-(4-((S)-4-cyclopropyl-3-methylpiperazine-1-yl)piperidine-1-yl)-4-methoxyphenyl) acrylamide] | A (GI50 < 50 nM)
C=CC(=O)Nc1cc(Nc2cc(N3OCC[C@@H]3Cc3cccc(Cl)c3C)ncn2)c(OC)cc1N1CCC(N2CCN(C3CC3)CC2)CC1 [compound 1025, N-(5-((6-((S)-3-(3-chloro-2-methylbenzyl)isoxazolidine-2-yl)pyrimidine-4-yl)amino)-2-(4-(4-cyclopropylpiperazine-1-yl)piperidine-1-yl)-4-methoxyphenyl) acrylamide] | A (GI50 < 50 nM)
C=CC(=O)Nc1cc(Nc2cc(N3OCC[C@@H]3c3cc(F)ccc3F)ncn2)c(OC)cc1N1CCC(N2CC[C@H](N(C)C)C2)CC1 [compound 816, N-(5-((6-((R)-3-(2,5-difluorophenyl)isoxazolidine-2-yl)pyrimidine-4-yl)amino)-2-(4-((S)-3-(dimethylamino)pyrolidine-1-yl)piperidine-1-yl)-4-methoxyphenyl) acrylamide] | A (GI50 < 50 nM)
C=CC(=O)Nc1cc(Nc2cc(N3OCC[C@@H]3c3ccc(C)nc3)ncn2)c(OC)cc1N1CCC(N2C[C@H]3C[C@@H]2CO3)CC1 [Example 227, N-(2-(4-((1R,4R)-2-oxa-5-azabicyclo[2.2.1]heptane-5-yl)piperidine-1-yl)-4-methoxy-5-((6-((R)-3-(6-methylpyridine-3-yl)isoxazolidine-2-yl)pyrimidine-4-yl)amino)phenyl)acrylamide] | B (50 nM ≤ GI50 < 500 nM)
C=CC(=O)Nc1cc(Nc2cc(N3OCC[C@@H]3c3cccc(F)c3F)ncn2)c(OC)cc1N1CCC(N(C)C)CC1 [compound 926, N-(5-((6-((R)-3-(2,3-difluorophenyl)isoxazolidine-2-yl)pyrimidine-4-yl)amino)-2-(4-(dimethylamino)piperidine-1-yl)-4-methoxyphenyl) acrylamide] | A (GI50 < 50 nM)
C=CC(=O)Nc1cc(Nc2cc(N3OCC[C@@H]3Cc3cccc(N(C)C)c3)ncn2)c(OC)cc1N1CCC(N2CCN(C3CC3)[C@H](C)C2)CC1 [compound 1046, N-(2-(4-((R)-4-cyclopropyl-3-methylpiperazine-1-yl)piperidine-1-yl)-5-((6-((S)-3-(3-(dimethylamino)benzyl)isoxazolidine-2-yl)pyrimidine-4-yl)amino)-4-methoxyphenyl) acrylamide] | B (50 nM ≤ GI50 < 500 nM)
C=CC(=O)Nc1cc(Nc2cc(N3OCC[C@@H]3c3cccc(F)c3)ncn2)c(OC)cc1N1CC[C@H](N2CCOCC2)C1 [compound 321, N-(5-((6-((R)-3-(3-fluorophenyl)isoxazolidine-2-yl)pyrimidine-4-yl)amino)-4-methoxy-2-((S)-3-morpholinopyrolidine-1-yl)phenyl)acrylamide] | B (50 nM ≤ GI50 < 500 nM)
C=CC(=O)Nc1cc(Nc2cc(N3OCC[C@@H]3c3cc(F)ccc3F)ncn2)c(OC)cc1N1CCC(N2CCN(C3CCC3)CC2)CC1 [Example 77, N-(2-(4-(4-cyclobutylpiperazine-1-yl)piperidine-1-yl)-5-((6-((R)-3-(2,5-difluorophenyl)isoxazolidine-2-yl)pyrimidine-4-yl)amino)-4-methoxyphenyl) acrylamide] | A (GI50 < 50 nM)
C=CC(=O)Nc1cc(Nc2cc(N3OCC[C@@H]3c3ccc(F)c(Cl)c3F)ncn2)c(OC)cc1N1CCC(N2CCN(C3COC3)CC2)CC1 [Example 202, N-(5-((6-((R)-3-(3-chloro-2,4-difluorophenyl)isoxazolidine-2-yl)pyrimidine-4-yl)amino)-4-methoxy-2-(4-(4-(oxetane-3-yl)piperazine-1-yl)piperidine-1-yl)phenyl)acrylamide] | A (GI50 < 50 nM)
C=CC(=O)Nc1cc(Nc2cc(N3OCC[C@@H]3c3ccc(Cl)c(F)c3)ncn2)c(OC)cc1N1CCN(C(C)=O)CC1 [compound 363, N-(2-(4-acetylpiperazine-1-yl)-5-((6-((R)-3-(4-chloro-3-fluorophenyl)isoxazolidine-2-yl)pyrimidine-4-yl)amino)-4-methoxyphenyl) acrylamide] | A (GI50 < 50 nM)
C=CCN1CCN(C2CCN(c3cc(OC)c(Nc4cc(N5OCC[C@@H]5c5cc(F)ccc5F)ncn4)cc3NC(=O)C=C)CC2)CC1 [Example 88, N-(2-(4-(4-allylpiperazine-1-yl)piperidine-1-yl)-5-((6-((R)-3-(2,5-difluorophenyl)isoxazolidine-2-yl)pyrimidine-4-yl)amino)-4-methoxyphenyl) acrylamide] | A (GI50 < 50 nM)
C=CC(=O)Nc1cc(Nc2cc(N3OCC[C@@H]3c3cccc(OC)c3)ncn2)c(OC)cc1N1CCC(N2CC[C@H](N(C)C)C2)CC1 [compound 729, N-(2-(4-((S)-3-(dimethylamino)pyrolidine-1-yl)piperidine-1-yl)-4-methoxy-5-((6-((R)-3-(3-methoxyphenyl)isoxazolidine-2-yl)pyrimidine-4-yl)amino)phenyl)acrylamide] | A (GI50 < 50 nM)
C=CC(=O)Nc1cc(Nc2cc(N3OCC[C@@H]3c3cccc(F)c3Cl)ncn2)c(OC)cc1N1CCC(N2CCN(C3CC3)C[C@@H]2C)CC1 [Example 144, N-(5-((6-((R)-3-(2-chloro-3-fluorophenyl)isoxazolidine-2-yl)pyrimidine-4-yl)amino)-2-(4-((S)-4-cyclopropyl-2-methylpiperazine-1-yl)piperidine-1-yl)-4-methoxyphenyl) acrylamide] | A (GI50 < 50 nM)
C=CC(=O)Nc1cc(Nc2cc(N3OCC[C@@H]3c3cccc(OC)c3)ncn2)c(OC)cc1N1CC[C@@H](N(C)C)C1 [compound 776, N-(2-((R)-3-(dimethylamino)pyrolidine-1-yl)-4-methoxy-5-((6-((R)-3-(3-methoxyphenyl)isoxazolidine-2-yl)pyrimidine-4-yl)amino)phenyl)acrylamide] | A (GI50 < 50 nM)
C=CC(=O)Nc1cc(Nc2cc(N3OCC[C@@H]3c3ccc(F)c(Cl)c3)ncn2)c(OC)cc1N1C[C@@H]2C[C@H]1CO2 [compound 902, N-(2-((1S,4S)-2-oxa-5-azabicyclo [2.2.1]heptane-5-yl)-5-((6-((R)-3-(3-chloro-4-fluorophenyl)isoxazolidine-2-yl)pyrimidine-4-yl)amino)-4-methoxyphenyl) acrylamide] | A (GI50 < 50 nM)
C=CC(=O)Nc1cc(Nc2cc(N3OCC[C@@H]3c3cc(F)ccc3F)ncn2)c(OC)cc1N1C[C@H]2CCN(C)[C@H]2C1 [compound 892, N-(5-((6-((R)-3-(2,5-difluorophenyl)isoxazolidine-2-yl)pyrimidine-4-yl)amino)-4-methoxy-2-((3aR,6aR)-1-methylhexahydropyrrolo [3,4-b]pyrrole-5(1H)-yl)phenyl) acrylamide] | A (GI50 < 50 nM)
